Test results: patent US11078228B2, “Ectonucleotidase inhibitors and methods of use thereof” (Calithera Biosciences, Inc., priority 2018, dated 2021)
pIC50: −log10 of the molar value.

Molecular target: recombinant CD73 (Homo sapiens (Human), UniProt P21589)
Test: Assay 2: Inhibition of the CD73 enzyme in vitro (0.05 nM CD73, 1 hour 37° C., Malachite Green)
Type: biochemical
Settings: 0.05 nM CD73, 50 μM AMP, 1 hour at 37° C.
How it was run: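 Free phosphate was quantified from absorbance at 630 nm against a phosphate standard curve. This was read 5 min after Malachite Green was added at room temperature. Beforehand, the recombinant soluble enzyme reacted for 1 hour at 37° C.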

recombinant CD73, sequence (P21589 27-547): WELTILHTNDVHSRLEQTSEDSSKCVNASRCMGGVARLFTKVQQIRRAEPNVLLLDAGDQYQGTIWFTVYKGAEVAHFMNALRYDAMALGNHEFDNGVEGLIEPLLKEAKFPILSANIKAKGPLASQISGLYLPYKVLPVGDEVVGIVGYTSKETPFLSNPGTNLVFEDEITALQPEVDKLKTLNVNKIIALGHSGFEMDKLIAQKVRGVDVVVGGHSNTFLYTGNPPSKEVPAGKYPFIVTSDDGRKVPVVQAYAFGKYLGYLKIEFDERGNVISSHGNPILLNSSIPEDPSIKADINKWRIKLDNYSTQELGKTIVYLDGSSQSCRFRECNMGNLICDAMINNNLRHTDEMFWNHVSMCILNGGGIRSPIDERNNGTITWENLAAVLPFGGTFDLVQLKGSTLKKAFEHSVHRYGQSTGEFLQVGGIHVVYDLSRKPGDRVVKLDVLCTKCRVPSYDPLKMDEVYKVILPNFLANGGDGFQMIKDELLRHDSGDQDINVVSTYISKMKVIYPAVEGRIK

Row | Structure (SMILES) | pIC50
1 | C#C[C@@]1(O)[C@@H](COC(Cc2ccc(OC(F)(F)F)cc2)(C(=O)O)c2cscn2)O[C@@H](n2cnc3c(NC(C)C)nc(Cl)nc32)[C@@H]1O (stereo partly drawn) [Example 174, 2-(((2R,3S,4R,5R)-5-(2-chloro-6-(isopropylamino)-9H-purin-9-yl)-3-ethynyl-3,4-dihydroxytetrahydrofuran-2-yl)methoxy)-2-(thiazol-4-yl)-3-(4-(trifluoromethoxy)phenyl)propanoic acid] | 7.77
2 | C#C[C@@]1(O)[C@@H](COC(Cc2ccc(N3CCCN(CCO)C3=O)cc2)(C(=O)O)C(=O)O)O[C@@H](n2cnc3c(NCC4CC4)nc(Cl)nc32)[C@@H]1O [Example 138, 2-(((2R,3S,4R,5R)-5-(2-chloro-6-((cyclopropylmethyl)amino)-9H-purin-9-yl)-3-ethynyl-3,4-dihydroxytetrahydrofuran-2-yl)methoxy)-2-(4-(3-(2-hydroxyethyl)-2-oxotetrahydropyrimidin-1 (2H)-yl)benzyl)malonic acid] | 9.82
3 | C#C[C@@]1(O)[C@@H](COC(Cc2ccccc2)(C(=O)O)C(=O)O)O[C@@H](n2cnc3c(N(C)C)nc(Cl)nc32)[C@@H]1O [Example 31, 2-benzyl-2-(((2R,3S,4R,5R)-5-(2-chloro-6-(dimethylamino)-9H-purin-9-yl)-3-ethynyl-3,4-dihydroxytetrahydrofuran-2-yl)methoxy)malonic acid] | 8.70
4 | C#C[C@@]1(O)[C@@H](COC(Cc2ccc(N3CCCNC3=O)cc2)(C(=O)O)C(=O)O)O[C@@H](n2ccc(N)nc2=O)[C@@H]1O [Example 135, 2-(((2R,3S,4R,5R)-5-(4-amino-2-oxopyrimidin-1(2H)-yl)-3-ethynyl-3,4-dihydroxytetrahydrofuran-2-yl)methoxy)-2-(4-(2-oxotetrahydropyrimidin-1 (2H)-yl)benzyl)malonic acid] | 7.04
5 | C#C[C@@]1(O)[C@@H](COC(C(=O)O)C(=O)O)O[C@@H](n2cnc3c(NC)nc(Cl)nc32)[C@@H]1O [Example 117, 2-(((2R,3S,4R,5R)-5-(2-chloro-6-(methylamino)-9H-purin-9-yl)-3-ethynyl-3,4-dihydroxytetrahydrofuran-2-yl)methoxy)malonic acid] | 7.24
6 | C#C[C@@]1(O)[C@@H](COC(Cc2ccccc2)(C(=O)O)C(=O)NC)O[C@@H](n2cnc3c(NCc4ccccc4)nc(Cl)nc32)[C@@H]1O (stereo partly drawn) [Example 107, 2-benzyl-2-(((2R,3S,4R,5R)-5-(6-(benzylamino)-2-chloro-9H-purin-9-yl)-3-ethynyl-3,4-dihydroxytetrahydrofuran-2-yl)methoxy)-3-(methylamino)-3-oxopropanoic acid] | 6.30
7 | C#C[C@@]1(O)[C@@H](CO[C@@](Cc2ccccc2)(C(=O)O)c2cscn2)O[C@@H](n2cnc3c(NC(C)C)nc(Cl)nc32)[C@@H]1O (single isomer, unassigned) [Example 171] | 7.02
8 | C#C[C@@]1(O)[C@@H](COC(Cc2ccc(-c3cccn(COC)c3=O)cc2)(C(=O)O)C(=O)O)O[C@@H](n2cnc3c(N)nc(Cl)nc32)[C@@H]1O [Compound 11, 2-(((2R,3S,4R,5R)-5-(6-amino-2-chloro-9H-purin-9-yl)-3-ethynyl-3,4-dihydroxytetrahydrofuran-2-yl)methoxy)-2-(4-(1-(methoxymethyl)-2-oxo-1,2-dihydropyridin-3-yl)benzyl)malonic acid] | 10.22
9 | C#C[C@@]1(O)[C@@H](COC(Cc2ccc(N3CCCN(CCO)C3=O)cc2)(C(=O)O)C(=O)O)O[C@@H](n2cnc3c(NC)nc(Cl)nc32)[C@@H]1O [Example 137, 2-(((2R,3S,4R,5R)-5-(2-chloro-6-(methylamino)-9H-purin-9-yl)-3-ethynyl-3,4-dihydroxytetrahydrofuran-2-yl)methoxy)-2-(4-(3-(2-hydroxyethyl)-2-oxotetrahydropyrimidin-1 (2H)-yl)benzyl)malonic acid] | 9.51

Next, values leading:

Row | pIC50 | Structure (SMILES)
10 | 8.22 | C#C[C@@]1(O)[C@@H](COC(Cc2cccs2)(C(=O)O)C(=O)O)O[C@@H](n2cnc3c(N)nc(Cl)nc32)[C@@H]1O [Example 128, 2-(((2R,3S,4R,5R)-5-(6-amino-2-chloro-9H-purin-9-yl)-3-ethynyl-3,4-dihydroxytetrahydrofuran-2-yl)methoxy)-2-(thiophen-2-ylmethyl)malonic acid]
11 | 9.22 | C#C[C@@]1(O)[C@@H](COC(Cc2ccccc2)(C(=O)O)C(=O)O)O[C@@H](n2cnc3c(NCc4ccc(Cl)cc4)nc(Cl)nc32)[C@@H]1O [Example 87, 2-benzyl-2-(((2R,3S,4R,5R)-5-(2-chloro-6-((4-chlorobenzyl)amino)-9H-purin-9-yl)-3-ethynyl-3,4-dihydroxytetrahydrofuran-2-yl)methoxy)malonic acid]
12 | 9.60 | C#C[C@@]1(O)[C@@H](COC(Cc2ccc(N3CCCN(C)C3=O)cc2)(C(=O)O)C(=O)O)O[C@@H](n2cnc3c(NC(C)C)nc(Cl)nc32)[C@@H]1O [Example 151, 2-(((2R,3S,4R,5R)-5-(2-chloro-6-(isopropylamino)-9H-purin-9-yl)-3-ethynyl-3,4-dihydroxytetrahydrofuran-2-yl)methoxy)-2-(4-(3-methyl-2-oxotetrahydropyrimidin-1(2H)-yl)benzyl)malonic acid]
13 | 8.52 | C#C[C@@]1(O)[C@@H](COC(Cc2cc(C)on2)(C(=O)O)C(=O)O)O[C@@H](n2cnc3c(NC(C)C)nc(Cl)nc32)[C@@H]1O [Example 110, 2-(((2R,3S,4R,5R)-5-(2-chloro-6-(isopropylamino)-9H-purin-9-yl)-3-ethynyl-3,4-dihydroxytetrahydrofuran-2-yl)methoxy)-2-((5-methylisoxazol-3-yl)methyl)malonic acid]
14 | 9.00 | C#C[C@@]1(O)[C@@H](COC(Cc2ccccc2)(C(=O)O)C(=O)O)O[C@@H](n2cnc3c(N4CC[C@@H](CO)C4)nc(Cl)nc32)[C@@H]1O [Example 102, 2-benzyl-2-(((2R,3S,4R,5R)-5-(2-chloro-6-((R)-3-(hydroxymethyl)-pyrrolidin-1-yl)-9H-purin-9-yl)-3-ethynyl-3,4-dihydroxytetrahydrofuran-2-yl)methoxy)malonic acid]
15 | 8.40 | C#C[C@@]1(O)[C@@H](COC(Cc2ccnc(Cl)c2)(C(=O)O)C(=O)O)O[C@@H](n2cnc3c(N)nc(Cl)nc32)[C@@H]1O [Compound 5, 2-(((2R,3S,4R,5R)-5-(6-amino-2-chloro-9H-purin-9-yl)-3-ethynyl-3,4-dihydroxytetrahydrofuran-2-yl)methoxy)-2-((2-chloropyridin-4-yl)methyl)malonic acid]
16 | 8.70 | C#C[C@@]1(O)[C@@H](COC(Cc2ccccc2)(C(=O)O)C(=O)O)O[C@@H](n2cnc3c(N(C)C4CC4)nc(Cl)nc32)[C@@H]1O [Example 105, 2-benzyl-2-(((2R,3S,4R,5R)-5-(2-chloro-6-(cyclopropyl(methyl)amino)-9H-purin-9-yl)-3-ethynyl-3,4-dihydroxytetrahydrofuran-2-yl)methoxy)malonic acid]
17 | 8.70 | C#C[C@@]1(O)[C@@H](COC(Cc2ccsc2)(C(=O)O)C(=O)O)O[C@@H](n2cnc3c(NC(C)C)nc(Cl)nc32)[C@@H]1O [Example 33, 2-(((2R,3S,4R,5R)-5-(2-chloro-6-(isopropylamino)-9H-purin-9-yl)-3-ethynyl-3,4-dihydroxytetrahydrofuran-2-yl)methoxy)-2-(thiophen-3-ylmethyl)malonic acid]
